Measured values from US20240279191A1, “SMALL MOLECULE INHIBITORS OF TEAD-YAP” (The General Hospital Corporation, priority 2021, published 2024).

Tests used:
Myc-TEAD1 = Myc-TEAD1 (Homo sapiens, UniProt P28347); assay: Inhibition of Myc-TEAD1 palmitoylation in HEK293A cells; type: cell-based; conditions: 24 h, dose-dependent, FIG. 2C
Protocol: HEK293A cells were seeded in 6 cm dishes overnight and transfected with plasmids using PEI reagent (1 μg/μL). Briefly, PRK5-Myc-TEAD1 (33109, Addgene) and PEI were diluted in serum-free DMEM medium in two tubes (DNA: PEI ratio=1:2). After standing still for 5 mins, mix them well and stay for another 20 mins. The mixture was then added to dishes directly.
HEK293A cells with or without TEAD overexpression were pretreated with DMSO or TM2 in medium with 10% dialyzed fetal bovine serum (DFBS) for 8 h and labeled by Alkynyl Palmitic acid (1165, Click Chemistry Tools) for another 16 h. The cells were then washed and harvested by cold DPBS (14190250, Life Technologies). The cell pellets were isolated by centrifugation (500×g, 10 min) and lysed by TEA lysis buffer (50 mM TEA-HCl, pH 7.4, 150 mM NaCl, 1% Triton X-100, 0.2% SDS, 1×Protease inhibitor-EDTA free cocktail (05892791001, Roche), phosphatase inhibitor cocktail (P0044, Sigma-Aldrich)) on ice for 30 mins. The protein concentration was determined using Bio-Rad assay and adjusted to 1 mg/mL. 100 μL of protein sample mixture was treated with 10 μL of freshly prepared “click” mixture containing 1 mM TBTA, 10 mM TCEP, 10 mM CuSO4, 1 mM TBTA Biotin-Azide and incubated for 1 h at room temperature. […] The bound proteins were eluted with a buffer containing 10 mM EDTA pH 8.2 and 95% formamide and analyzed with SDS-PAGE. […]

[1] = test system: TEAD-YAP target genes (CTGF, Cyr61, ANKRD1); assay: Quantitative RT-PCR of TEAD-YAP target genes in H226 cells; type: cell-based, Human
Protocol: […] The high-capacity cDNA reverse transcription kit (4368814, Life Technologies) was employed to obtain cDNA. Target genes expression (Cyr61, CTGF and ANKRD1) was measured with PowerUp SYB Green Master Mix kit (A25777, Life Technologies). β-actin was used as reference gene. The primers are shown below:

[2] = test system: YAP/TAZ-TEAD direct target genes; assay: RNA-seq analysis in H226 cells; type: cell-based, Human; conditions: 1 μM TM2, versus K975 in H226 xenograft tumors (GSE156912), FIG. 7
Protocol: The NCI-H226 cells were treated with TM2 at 1 μM for 24 hours. Total RNA was isolated with RNeasy Mini Kit (74104, Qiagen). The integrity of isolated RNA was analyzed using Bioanalyzer (Agilent Technologies). and the RNA-seq libraries were made by Novogene. All libraries have at least 50 million reads sequenced (150 bp paired-end). The heatmaps were generated using different expressed genes from TM2 treatment in NCI-H226 cells with Motpheus (https://software.broadinstitute.org/morpheus/). Principle component analysis (PCA) was determined by PCA function in M3C package in R. Gene Set Enrichment Analysis (GSEA) was performed using GSEA software from Broad Institute (http://software.broadinstitute.org/gsea/index.jsp). The YAP_TAZ-TEAD Direct Target Genes set were generated with the published YAP/TAZ-TEAD target genes (Zanconato et al., 2015).

[3] = test system: Mouse hepatic progenitor organoids; assay: Organoids viability; type: cell-based; conditions: 40 nM
Protocol: Mouse hepatic progenitor organoids (70932, […] Tech) were seeded in 96 well plate using 20 ul Matrigel (Corning, #354230) and cultured in HepatiCult™ Organoid Growth Medium (06031, […] Tech) with or without TM2. Medium was replaced after every 48 h with fresh compound. Organoid viability was measured by PrestoBlue™ HS Cell Viability Reagent (ThermoFisher, #P50200) following the manufacturer's protocol.

[4] = test system: Mouse hepatic progenitor organoids; assay: Immunofluorescence staining of Ki67 in organoids; type: cell-based; conditions: 40 nM, 3D culture
Protocol: Organoids were plated in 8 well chamber slide and fixed in 4% paraformaldehyde at 4° C. for 1h. After permeabilization in 0.5% PBST, organoids were blocked with 2% BSA for 2 h and incubated with primary antibody overnight at […]. Imaging was performed on Nikon A1RHD25 confocal microscope.

HCT116 cells = assay: Drug combination matrix TM2 + Trametinib, HCT116; type: cell-based, Human; conditions: 5 doses TM2 x 9 doses trametinib, day 5, Bliss, FIG. 10
Protocol: The drug combination experiments were preformed using a drug combination matrix across 5 doses of TM2 (5 μM, 3-fold dilution) and 9 doses of Trametinib (10 μM, 3-fold dilution) in different tumor cell lines. Cell viability was determined at day 5 after the drugs administration by MTT. Drug synergy score was calculated followed Bliss rule. Synergy Score and Plot was generated by “Synergyfinder” package in R language.

HCC95 = HCC95 growth inhibition (SAR tables); type: cell-based
[5] = Aqueous solubility (Aq Sol); type: physicochemical
logD 7.4 = conditions: pH 7.4

Chain of Myc-TEAD1 (P28347 whole entry): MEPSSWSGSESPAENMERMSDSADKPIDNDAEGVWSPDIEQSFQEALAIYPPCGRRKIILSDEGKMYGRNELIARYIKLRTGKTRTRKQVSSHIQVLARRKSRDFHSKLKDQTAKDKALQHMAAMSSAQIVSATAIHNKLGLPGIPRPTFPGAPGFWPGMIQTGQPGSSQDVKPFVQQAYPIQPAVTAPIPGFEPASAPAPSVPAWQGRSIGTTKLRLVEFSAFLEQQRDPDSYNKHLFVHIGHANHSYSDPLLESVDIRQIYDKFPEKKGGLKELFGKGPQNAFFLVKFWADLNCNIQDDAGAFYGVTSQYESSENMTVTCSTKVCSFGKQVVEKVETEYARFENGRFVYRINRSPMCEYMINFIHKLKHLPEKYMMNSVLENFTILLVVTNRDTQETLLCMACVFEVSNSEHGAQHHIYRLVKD

Myc-TEAD1 palmitoylation in cells (in words) (Myc-TEAD1): dramatically suppresses
Aq Sol [5]: 2.3 µM
logD (logD 7.4): 4.6
SMILES: O=C(Nc1ccccc1)N1CCN(C(=O)c2cccc(OCCC3CCCCC3)c2)CC1 [TM2, 4-(3-(2-cyclohexylethoxy)benzoyl)-N-phenylpiperazine-1-carboxamide]
expression level of CTGF and ANKDR1 (in words) ([1]; H226, 24 and 48 h): significantly suppressed
expression of Cyr61 (in words) ([1]; H226, 48 h): strong response
block of YAP/TAZ-TEAD direct target genes (in words) [2]: more efficient to block YAP/TAZ-TEAD target genes relative to K975
disruption of organoids growth [3]: more than 85%
Ki67 positive cells in organoids (in words) [4]: significantly diminished
combination with MEK inhibitor trametinib, HCT116 (in words) (HCT116 cells): strong inhibitory effects and substantial synergy
HCC95: value at 1 μM (HCC95; 1 μM): 37
HCC95: value at 10 μM (HCC95; 10 μM): 65
